Data published in publication PMC6178348, “Intranasal delivery of a Fas-blocking peptide attenuates Fas-mediated apoptosis in brain ischemia” (Scientific Reports, 2018).
Peptide text beside a SMILES is read from it.

Experiments:
normal rat brain tissue = assay: H&E and TUNEL staining of brain sections of normal non-ischemic rats after IN inoculation; assay type: in vivo; conditions: H&E and TUNEL stained sections, N = 6 per group
Method: Brain pathology was analyzed by incubating 2 mm thick brain slices in 2% 2,3,5-triphenyltetrazolium chloride (TTC staining, Sigma) and measuring the infarct volume after fixation using Image J software as previously described. Paraffin-embedded brain sections were also subjected to H&E staining and immunohistochemistry after with an antibody to rat Fas (ab82419, Abcam). Apoptosis in de-paraffinized, rehydrated brain sections was analyzed by TUNEL staining using the In Situ Cell Death Detection Kit (Roche, Germany) in accordance with the manufacturer’s instructions.
(A) Regional cerebral blood flow (rCBF) in rat’s subject to MCAO. The cerebral blood flow was measured during ligation of CCA, occlusion of MCA and after reperfusion (N=6 per group) and a 9 fold reduction was considered as a confirmation of ischemic stroke injury. (B) Bio-distribution of IN inoculated ctr-FBP-A488 or FBP-A488 at the indicated time points in normal non-ischemic rats that constitute a control group (N=3 per group). Mock treated animals were inoculated with PBS. (C) Representative hematoxylin and eosin (H&E) (upper panel) and TUNEL (lower panel) stained paraffin embedded sections from normal rat inoculated with PBS (Mock), ctr-FBP or FBP […]
change in tissue morphology and toxicity. Scale bare represents 100µm. ctr-FBP-A488- Alexa488 labeled control peptide, FBP-A488- Alexa488 labeled Fas-blocking peptide.

[1] = Brain biodistribution of intranasally inoculated A488-labeled peptide in normal and MCAO rats; assay type: in vivo, Sprague–Dawley rats; conditions: intranasal (POD), MCAO rats; fluorescence imaging
Description: Figure 3 IN delivered FBP localizes to Fas-expressing brain regions in the MCAO rat model of focal ischemia. (A) Immunohistochemistry for Fas expression in ischemic rat brain after MCAO. Representative images of deparaffinized coronal brain sections from normal or ischemic rats stained with anti-Fas antibody at the designated times post-MCAO are shown. Representative images (upper panel) and cumulative data (lower panel) depicting fluorescence intensities measured in arbitrary pixel values relative to that at the 12 h ‘normal’ rats. Scale bar = 50 µm. The data represent mean ± SD (N = 6 per group). *P < 0.05 at individual time-points, Mann-Whitney U test, ^###P < 0.001; Cumulative data, Two-way ANOVA. […] Representative images (upper panel) and cumulative data (lower panel) depicting fluorescence intensities measured in arbitrary pixel values relative to and normalized based on fluorescence intensities in normal group. […]
For bio-distribution studies, A488-conjugated FBP was intranasally (IN) administered at 500 μg (1.4 mg/kg) in a final volume of 50 μL (25 μL in each nare) using the POD at 12 h post-MCAO and fluorescence analyzed at designated time points in isolated organs using Image Station 4000 mm (Carestream Rochester, NY) or by flow cytometry of single cell suspensions on a FACS Calibur™ (BD Bioscience, San Jose, CA) and analyzed using the Flowjo software. […]

Row | SMILES | Change in brain tissue morphology and toxicity in normal rats (normal rat brain tissue) | Clearance of peptide from brain after IN delivery [1]
1 | N[C@@H](Cc1ccc(O)cc1)C(=O)N[C@@H](CS)C(=O)N[C@@H](CC(=O)O)C(=O)N[C@@H](CCC(=O)O)C(=O)N[C@@H](Cc1c[nH]cn1)C(=O)N[C@@H](Cc1ccccc1)C(=O)N[C@@H](CS)C(=O)N[C@@H](Cc1ccc(O)cc1)C(=O)O [FBP] (H-YCDEHFCY-OH) | did not shows any change in tissue morphology and toxicity | –
2 | CC(C)[C@H](NC(=O)[C@@H](NC(=O)[C@H](CO)NC(=O)[C@H](CC(N)=O)NC(=O)[C@H](CS)NC(=O)[C@@H](N)Cc1ccc(O)cc1)[C@@H](C)O)C(=O)N[C@@H](CS)C(=O)N[C@@H](Cc1ccc(O)cc1)C(=O)O [ctr-FBP] (H-YCNSTVCY-OH) | did not shows any change in tissue morphology and toxicity | cleared within a few hours of treatment
